Results: patent US20240294541A1, “COMPOUNDS CONSTITUTING C20-MODIFIED SALINOMYCIN DERIVATIVES, A METHOD FOR OBTAINING THE SAME, A COMPOSITION CONTAINING THE SAME AND A USE OF SAID COMPOUNDS” (FILECLO SPOLKA Z OGRANICZONA ODPOWIEDZIALNOSCIA, priority 2021, published 2024)
Read-outs that look alike come from different tables or passages of the source.

Key:
Format in all cases: cell-based
[1] = test system: NCI-H23 (human lung cancer); experiment: In vitro cytotoxicity, SRB assay, NCI-H23; conditions: for IC50: Homo sapiens; for NCI-H23 SI: selectivity coefficient vs normal BALB/3T3 cells
[2] = test system: BALB/3T3 (normal mouse fibroblasts); experiment: In vitro cytotoxicity, SRB assay, normal BALB/3T3 fibroblasts; conditions: Mus musculus, BALB/3T3; normal cells; 72 h with compound, SRB; n/a = non-active compound; read-out: BALB/3T3 IC50
[3] = test system: MIA PaCa-2 (human pancreatic cancer); experiment: cells; conditions: for IC50: Homo sapiens, MIA PaCa-2, 72 h with compound, SRB, n/a = non-active compound, read-out: MIA PaCa-2 IC50; for MIA PaCa-2 SI: selectivity coefficient vs normal BALB/3T3 cells
[4] = test system: SNU-16 (human gastric cancer); experiment: cells; conditions: for IC50: Homo sapiens, SNU-16, 72 h with compound, MTT, n/a = non-active compound, read-out: SNU-16 IC50; for SNU-16 SI: selectivity coefficient vs normal BALB/3T3 cells
[5] = test system: PFSK-1 (malignant primitive neuroectodermal tumour); experiment: In vitro cytotoxicity, SRB assay, PFSK-1; conditions: for IC50: Homo sapiens; for PFSK-1 SI: selectivity coefficient vs normal BALB/3T3 cells
[6] = test system: Hs294T (human melanoma); experiment: cells; conditions: for IC50: Homo sapiens, Hs 294T, 72 h with compound, SRB, n/a = non-active compound, read-out: Hs294T IC50; for Hs294T SI: selectivity coefficient vs normal BALB/3T3 cells
[7] = test system: A2780 (human ovarian cancer); experiment: In vitro cytotoxicity, SRB assay, A2780; conditions: for IC50: Homo sapiens; for A2780 SI: selectivity coefficient vs normal BALB/3T3 cells
[8] = test system: KG-1 (human acute myeloid leukaemia); experiment: In vitro cytotoxicity, MTT assay, KG-1; conditions: for IC50: Homo sapiens, 72 h with compound, MTT, n/a = non-active compound; for KG-1 SI: selectivity coefficient vs normal BALB/3T3 cells
[9] = test system: A2780Cis (cisplatin-resistant human ovarian cancer); experiment: In vitro cytotoxicity, SRB assay, A2780Cis; conditions: for IC50: Homo sapiens, A2780cis, 72 h, read-out: A2780Cis IC50 (nM)
[10] = test system: A375 (human melanoma); experiment: In vitro cytotoxicity, SRB assay, A375; conditions: for IC50: Homo sapiens; for A375 SI: selectivity coefficient vs normal BALB/3T3 cells
[11] = test system: PLC/PRF/5 (human liver cancer); experiment: cells; conditions: for IC50: Homo sapiens, PLC-PRF-5, 72 h with compound, SRB, n/a = non-active compound, read-out: PLC/PRF/5 IC50; for PLC/PRF/5 SI: selectivity coefficient vs normal BALB/3T3 cells
[12] = NCI-H23, 72 h with compound, SRB, n/a = non-active compound, read-out: NCI-H23 IC50
[13] = PFSK-1, 72 h with compound, SRB, n/a = non-active compound, read-out: PFSK-1 IC50
[14] = A2780, 72 h with compound, SRB, n/a = non-active compound, read-out: A2780 IC50
[15] = A-375, 72 h with compound, SRB, n/a = non-active compound, read-out: A375 IC50

SMILES | IC50 [1, 12] [nM] | NCI-H23 SI [1] | IC50 [2] [nM] | IC50 [3] [nM] | MIA PaCa-2 SI [3] | IC50 [4] [nM] | SNU-16 SI [4] | IC50 [5, 13] [nM] | PFSK-1 SI [5] | IC50 [6] [nM] | Hs294T SI [6] | A2780 SI [7] | IC50 [8] [nM] | KG-1 SI [8] | A2780Cis RI [9] | A2780Cis SI [9] | IC50 [9] [nM] | A375 SI [10] | IC50 [11] [nM] | PLC/PRF/5 SI [11] | also measured
CC[C@@H](C(=O)[C@@H](C)[C@@H](O)[C@H](C)[C@@H]1O[C@@H]([C@@H](CC)C(=O)O)CC[C@@H]1C)[C@H]1O[C@]2(C=C[C@@H](NC(=O)NCc3ccccc3)[C@]3(CC[C@@](C)([C@H]4CC[C@](O)(CC)[C@H](C)O4)O3)O2)[C@H](C)C[C@@H]1C [FLC-00337-1] | 445 | 0.3 | 122 | 56 | 2.2 | 21.4 | 5.7 | 19.4 | 6.3 | 549 | 0.2 | 39.2 | 122 | 1.0 | 0.6 | 61.5 | 1.98 | 0.4 | 41.4 | 2.9 | IC50 [7, 14]: 3.1 nM; IC50 [10, 15]: 296 nM
CC[C@@H](C(=O)[C@@H](C)[C@@H](O)[C@H](C)[C@@H]1O[C@@H]([C@@H](CC)C(=O)O)CC[C@@H]1C)[C@H]1O[C@]2(C=C[C@@H](NC(=S)Nc3cc(Cl)cc(Cl)c3)[C@]3(CC[C@@](C)([C@H]4CC[C@](O)(CC)[C@H](C)O4)O3)O2)[C@H](C)C[C@@H]1C [FLC-00380-1] | – | 36.6 | 191 | 48.2 | 4.0 | 6.6 | 28.9 | – | 31.6 | 178 | 1.1 | 85.7 | 6.44 | 29.6 | 0.2 | 483.3 | 0.4 | 1.0 | 19.9 | 9.6 | IC50 ([1]; NCI-H23, 72 h, read-out: NCI-H23 IC50 (nM)): 5.22 nM; IC50 ([5]; PFSK-1, 72 h, read-out: PFSK-1 IC50 (nM)): 6.05 nM; IC50 ([7]; A2780, 72 h, read-out: A2780 IC50 (nM)): 2.23 nM; IC50 ([10]; A-375, 72 h, read-out: A375 IC50 (nM)): 195 nM
CC[C@@H](C(=O)[C@@H](C)[C@@H](O)[C@H](C)[C@@H]1O[C@@H]([C@@H](CC)C(=O)O)CC[C@@H]1C)[C@H]1O[C@]2(C=C[C@@H](NC(=O)Nc3ccc(OC)cc3)[C@]3(CC[C@@](C)([C@H]4CC[C@](O)(CC)[C@H](C)O4)O3)O2)[C@H](C)C[C@@H]1C [FLC-00371-1] | 4.54 | 20.4 | 92.3 | 31.3 | 3.0 | 14.8 | 6.2 | 5.13 | 18.0 | 67.7 | 1.4 | 39.3 | 22.1 | 4.2 | 0.1 | 413.4 | 0.22 | 2.1 | 12.8 | 7.2 | IC50 [7, 14]: 2.35 nM; IC50 [10, 15]: 43.3 nM
CCNC(=O)N[C@@H]1C=C[C@]2(O[C@H]([C@@H](CC)C(=O)[C@@H](C)[C@@H](O)[C@H](C)[C@@H]3O[C@@H]([C@@H](CC)C(=O)O)CC[C@@H]3C)[C@@H](C)C[C@H]2C)O[C@@]12CC[C@@](C)([C@H]1CC[C@](O)(CC)[C@H](C)O1)O2 [FLC-00358-1] | 113 | 2.0 | 223 | 45.6 | 4.9 | 67.9 | 3.3 | 32.3 | 6.9 | 1640 | 0.1 | 67.0 | 67.7 | 3.3 | 0.7 | 98.1 | 2.27 | 1.1 | 52.8 | 4.2 | IC50 [7, 14]: 3.32 nM; IC50 [10, 15]: 208 nM
CC[C@@H](C(=O)[C@@H](C)[C@@H](O)[C@H](C)[C@@H]1O[C@@H]([C@@H](CC)C(=O)O)CC[C@@H]1C)[C@H]1O[C@]2(C=C[C@@H](NC(=O)NCc3ccc(F)cc3)[C@]3(CC[C@@](C)([C@H]4CC[C@](O)(CC)[C@H](C)O4)O3)O2)[C@H](C)C[C@@H]1C [FLC-00383-1] | 24.6 | 7.0 | 173 | 47.7 | 3.6 | 20.3 | 8.6 | 26 | 6.7 | 244 | 0.7 | 27.2 | 30.6 | 5.7 | 0.7 | 39.0 | 4.45 | 0.8 | 3.35 | 51.7 | IC50 [7, 14]: 6.38 nM; IC50 [10, 15]: 205 nM
CC[C@@H](C(=O)[C@@H](C)[C@@H](O)[C@H](C)[C@@H]1O[C@@H]([C@@H](CC)C(=O)O)CC[C@@H]1C)[C@H]1O[C@]2(C=C[C@@H](NC(=O)Nc3cc(C(F)(F)F)cc(C(F)(F)F)c3)[C@]3(CC[C@@](C)([C@H]4CC[C@](O)(CC)[C@H](C)O4)O3)O2)[C@H](C)C[C@@H]1C [FLC-00344-1 Na] | 285 | 3.7 | 1060 | 383 | 2.8 | 106 | 10.0 | 112 | 9.5 | 2570 | 0.4 | 50.5 | 286 | 3.7 | 1.2 | 43.8 | 24.3 | 0.5 | 1290 | 0.8 | IC50 [7, 14]: 21 nM; IC50 [10, 15]: 2310 nM
CCCCCCCNC(=O)N[C@@H]1C=C[C@]2(O[C@H]([C@@H](CC)C(=O)[C@@H](C)[C@@H](O)[C@H](C)[C@@H]3O[C@@H]([C@@H](CC)C(=O)O)CC[C@@H]3C)[C@@H](C)C[C@H]2C)O[C@@]12CC[C@@](C)([C@H]1CC[C@](O)(CC)[C@H](C)O1)O2 [FLC-00350-1] | 101 | 1.0 | 103 | 37.4 | 2.8 | 18.2 | 5.7 | 7.25 | 14.2 | 419 | 0.2 | 42.0 | 35.9 | 2.9 | 0.9 | 44.9 | 2.3 | 0.4 | 23 | 4.5 | IC50 [7, 14]: 2.46 nM; IC50 [10, 15]: 251 nM
CC[C@@H](C(=O)[C@@H](C)[C@@H](O)[C@H](C)[C@@H]1O[C@@H]([C@@H](CC)C(=O)O)CC[C@@H]1C)[C@H]1O[C@]2(C=C[C@@H](NC(=S)Nc3ccc(Cl)cc3)[C@]3(CC[C@@](C)([C@H]4CC[C@](O)(CC)[C@H](C)O4)O3)O2)[C@H](C)C[C@@H]1C [FLC-00378-1] | 4.12 | 2.5 | 10.1 | 18.4 | 0.5 | 3.21 | 3.2 | 3.28 | 3.1 | 29.4 | 0.3 | 18.3 | 19.1 | 0.5 | 0.3 | 57.0 | 0.18 | 0.3 | 2.58 | 3.9 | IC50 [7, 14]: 0.55 nM; IC50 [10, 15]: 36.6 nM
CCCNC(=S)N[C@@H]1C=C[C@]2(O[C@H]([C@@H](CC)C(=O)[C@@H](C)[C@@H](O)[C@H](C)[C@@H]3O[C@@H]([C@@H](CC)C(=O)O)CC[C@@H]3C)[C@@H](C)C[C@H]2C)O[C@@]12CC[C@@](C)([C@H]1CC[C@](O)(CC)[C@H](C)O1)O2 [FLC-00349-1] | 75.2 | 0.9 | 67.5 | 66.3 | 1.0 | 20.7 | 3.3 | 27.6 | 2.4 | 108 | 0.6 | 15.0 | 24.7 | 2.7 | 1.0 | 14.8 | 4.56 | 0.6 | 24.1 | 2.8 | IC50 [7, 14]: 4.5 nM; IC50 [10, 15]: 113 nM
